# Test results reported in ChEMBL document CHEMBL5608186, “Design, synthesis and structure-activity relationships of novel non-ketolides: 9-Oxime clarithromycin featured with seven-to thirteen-atom-length diamine linkers at 3-OH” (Eur J Med Chem, 2024).
# Assays:
# Type in all cases: functional
# Streptococcus pneumoniae [1] = experiment: Antibacterial activity against Streptococcus pneumoniae 07P390 harboring c-erm gene incubated for 16 to 20 hrs by CLSI based broth microdilution method; details: time 16-20 hrs
# Streptococcus pneumoniae [2] = experiment: Selectivity ratio of MBC for Streptococcus pneumoniae PU 09 harboring mef gene to MIC for Streptococcus pneumoniae PU 09 harboring mef gene
# Streptococcus pyogenes [3] = experiment: Selectivity ratio of MBC for Streptococcus pyogenes 01-968 harboring i-ermB gene to MIC for Streptococcus pyogenes 01-968 harboring i-ermB gene
# Streptococcus pneumoniae [4] = experiment: Selectivity ratio of MBC for Streptococcus pneumoniae ATCC 49619 to MIC for Streptococcus pneumoniae ATCC 49619
# Staphylococcus aureus [5] = experiment: Selectivity ratio of MBC for methicillin-resistant Staphylococcus aureus PU 32 harboring i-ermA gene to MIC for methicillin-resistant Staphylococcus aureus PU 32 harboring i-ermA gene
# Haemophilus influenzae [6] = experiment: Selectivity ratio of MBC for Haemophilus influenzae ATCC 49247 to MIC for Haemophilus influenzae ATCC 49247
# Staphylococcus aureus [7] = experiment: Antibacterial activity against methicillin-resistant Staphylococcus aureus PU 20 harboring c-ermA gene incubated for 16 to 20 hrs by CLSI based broth microdilution method; details: time 16-20 hrs
# Streptococcus pneumoniae [8] = experiment: Bactericidal activity against Streptococcus pneumoniae PU 09 harboring mef gene incubated for 16 to 20 hrs by CLSI based broth microdilution method; details: time 16-20 hrs
# Streptococcus pyogenes [9] = experiment: Bactericidal activity against Streptococcus pyogenes 01-968 harboring i-ermB gene incubated for 16 to 20 hrs by CLSI based broth microdilution method; details: time 16-20 hrs
# Streptococcus pneumoniae [10] = experiment: Antibacterial activity against Streptococcus pneumoniae ATCC 49619 incubated for 16 to 20 hrs by CLSI based broth microdilution method; details: time 16-20 hrs
# Streptococcus pyogenes [11] = experiment: Antibacterial activity against Streptococcus pyogenes 01-968 harboring i-ermB gene incubated for 16 to 20 hrs by CLSI based broth microdilution method; details: time 16-20 hrs
# Streptococcus pneumoniae [12] = experiment: Bactericidal activity against Streptococcus pneumoniae ATCC 49619 incubated for 16 to 20 hrs by CLSI based broth microdilution method; details: time 16-20 hrs
# Streptococcus pneumoniae [13] = experiment: Bactericidal activity against Streptococcus pneumoniae 07P390 harboring c-erm gene incubated for 16 to 20 hrs by CLSI based broth microdilution method; details: time 16-20 hrs
# Staphylococcus aureus [14] = experiment: Bactericidal activity against methicillin-resistant Staphylococcus aureus PU 32 harboring i-ermA gene incubated for 16 to 20 hrs by CLSI based broth microdilution method; details: time 16-20 hrs
# Streptococcus pneumoniae [15] = experiment: Antibacterial activity against Streptococcus pneumoniae PU 09 harboring mef gene incubated for 16 to 20 hrs by CLSI based broth microdilution method; details: time 16-20 hrs
# Staphylococcus aureus [16] = experiment: Antibacterial activity against methicillin-resistant Staphylococcus aureus PU 32 harboring i-ermA gene incubated for 16 to 20 hrs by CLSI based broth microdilution method; details: time 16-20 hrs
# Haemophilus influenzae [17] = experiment: Bactericidal activity against Haemophilus influenzae ATCC 49247 incubated for 16 to 20 hrs by CLSI based broth microdilution method; details: time 16-20 hrs
# Streptococcus pneumoniae [18] = experiment: Selectivity ratio of MBC for Streptococcus pneumoniae 07P390 harboring c-erm gene to MIC for Streptococcus pneumoniae 07P390 harboring c-erm gene
# Staphylococcus aureus [19] = experiment: Bactericidal activity against methicillin-resistant Staphylococcus aureus PU 20 harboring c-ermA gene incubated for 16 to 20 hrs by CLSI based broth microdilution method; details: time 16-20 hrs
# Haemophilus influenzae [20] = experiment: Antibacterial activity against Haemophilus influenzae ATCC 49247 incubated for 16 to 20 hrs by CLSI based broth microdilution method; details: time 16-20 hrs
Compound,MIC (Streptococcus pneumoniae [1]),Selectivity ratio (Streptococcus pneumoniae [2]),Selectivity ratio (Streptococcus pyogenes [3]),Selectivity ratio (Streptococcus pneumoniae [4]),Selectivity ratio (Staphylococcus aureus [5]),Selectivity ratio (Haemophilus influenzae [6]),MIC (Staphylococcus aureus [7]),MBC (Streptococcus pneumoniae [8]),MBC (Streptococcus pyogenes [9]),MIC (Streptococcus pneumoniae [10]),MIC (Streptococcus pyogenes [11]),MBC (Streptococcus pneumoniae [12]),MBC (Streptococcus pneumoniae [13]),MBC (Staphylococcus aureus [14]),MIC (Streptococcus pneumoniae [15]),MIC (Staphylococcus aureus [16]),MBC (Haemophilus influenzae [17]),Selectivity ratio (Streptococcus pneumoniae [18]),MBC (Staphylococcus aureus [19]),MIC (Haemophilus influenzae [20])
CC[C@H]1OC(=O)[C@H](C)[C@@H](OC(=O)NCCCc2ccc3c(c2)c(=O)c(C(=O)O)cn3C2CC2)[C@H](C)[C@@H](O[C@@H]2O[C@H](C)C[C@H](N(C)C)[C@H]2O)[C@](C)(OC)C[C@@H](C)/C(=N\OC)[C@H](C)[C@H]2OC(=O)O[C@@]21C,> 32 µg/mL,4,2,2,>8,1,,,,,,,,,,,,,,
CC[C@H]1OC(=O)[C@H](C)[C@@H](O[C@H]2C[C@@](C)(OC)[C@@H](O)[C@H](C)O2)[C@H](C)[C@@H](O[C@@H]2O[C@H](C)C[C@H](N(C)C)[C@H]2O)[C@](C)(OC)C[C@@H](C)C(=O)[C@H](C)[C@@H](O)[C@]1(C)O [CLARITHROMYCIN],> 32 µg/mL,8,>8,4,>8,2,> 256 µg/mL,32 µg/mL,> 64 µg/mL,0.062 µg/mL,8 µg/mL,0.25 µg/mL,,,,,,,,
CC[C@H]1OC(=O)[C@H](C)[C@@H](OC(=O)CCNCCCc2ccc3c(c2)c(=O)c(C(=O)O)cn3C2CC2)[C@H](C)[C@@H](O[C@@H]2O[C@H](C)C[C@H](N(C)C)[C@H]2O)[C@](C)(OC)C[C@@H](C)/C(=N\OC)[C@H](C)[C@H]2OC(=O)O[C@@]21C,16 µg/mL,1,1,2,,2,,,,,,,> 32 µg/mL,,,,,,,
CC[C@H]1OC(=O)[C@H](C)[C@@H](OC(=O)CCNCCCCNc2cc3c(cc2F)c(=O)c(C(=O)O)cn3C2CC2)[C@H](C)[C@@H](O[C@@H]2O[C@H](C)C[C@H](N(C)C)[C@H]2O)[C@](C)(OC)C[C@@H](C)/C(=N\OCC#Cc2ccc3c(c2)c(=O)c(C(N)=O)cn3CC)[C@H](C)[C@H]2OC(=O)O[C@@]21C,2 µg/mL,1,>8,1,,1,> 256 µg/mL,0.25 µg/mL,> 8 µg/mL,0.12 µg/mL,1 µg/mL,0.12 µg/mL,8 µg/mL,> 256 µg/mL,0.25 µg/mL,128 µg/mL,8 µg/mL,4,> 256 µg/mL,8 µg/mL
CC[C@H]1OC(=O)[C@H](C)[C@@H](OC(=O)CCN2CCN(c3cc4c(cc3F)c(=O)c(C(N)=O)cn4C3CC3)CC2)[C@H](C)[C@@H](O[C@@H]2O[C@H](C)C[C@H](N(C)C)[C@H]2O)[C@](C)(OC)C[C@@H](C)/C(=N\OCC#Cc2cncc(C(=O)NC)c2)[C@H](C)[C@H]2OC(=O)O[C@@]21C,256 µg/mL,4,>8,4,,,> 256 µg/mL,4 µg/mL,> 256 µg/mL,0.25 µg/mL,32 µg/mL,1 µg/mL,> 256 µg/mL,> 256 µg/mL,1 µg/mL,256 µg/mL,> 256 µg/mL,,> 256 µg/mL,> 256 µg/mL
CC[C@H]1OC(=O)[C@H](C)[C@@H](OC(=O)CCN2CCN(c3cc4c(cc3F)c(=O)c(C(=O)O)cn4C3CC3)CC2)[C@H](C)[C@@H](O[C@@H]2O[C@H](C)C[C@H](N(C)C)[C@H]2O)[C@](C)(OC)C[C@@H](C)/C(=N\OCC#Cc2cncc3ccccc23)[C@H](C)[C@H]2OC(=O)O[C@@]21C,> 32 µg/mL,2,2,1,,1,> 256 µg/mL,32 µg/mL,64 µg/mL,4 µg/mL,32 µg/mL,4 µg/mL,,,16 µg/mL,> 256 µg/mL,1 µg/mL,,,1 µg/mL
C#CCO/N=C1\[C@H](C)C[C@@](C)(OC)[C@H](O[C@@H]2O[C@H](C)C[C@H](N(C)C)[C@H]2O)[C@@H](C)[C@H](OC(=O)CCN2CCN(c3cc4c(cc3F)c(=O)c(C(=O)O)cn4C3CC3)CC2)[C@@H](C)C(=O)O[C@H](CC)[C@@]2(C)OC(=O)O[C@@H]2[C@H]1C,32 µg/mL,2,2,1,>4,1,256 µg/mL,2 µg/mL,8 µg/mL,0.5 µg/mL,4 µg/mL,0.5 µg/mL,> 32 µg/mL,> 256 µg/mL,1 µg/mL,64 µg/mL,1 µg/mL,,> 256 µg/mL,1 µg/mL
CC[C@H]1OC(=O)[C@H](C)[C@@H](OC(=O)CCN2CCN(c3cc4c(cc3F)c(=O)c(C(=O)O)cn4C3CC3)CC2)[C@H](C)[C@@H](O[C@@H]2O[C@H](C)C[C@H](N(C)C)[C@H]2O)[C@](C)(OC)C[C@@H](C)/C(=N\OC)[C@H](C)[C@H]2OC(=O)O[C@@]21C,> 32 µg/mL,4,8,1,>4,2,256 µg/mL,2 µg/mL,8 µg/mL,0.25 µg/mL,1 µg/mL,0.25 µg/mL,,> 256 µg/mL,0.5 µg/mL,64 µg/mL,2 µg/mL,,> 256 µg/mL,1 µg/mL
CC[C@H]1OC(=O)[C@H](C)[C@@H](OC(=O)CCNCCCCCCCCNc2cc3c(=O)c(C(=O)O)cn(C4CC4)c3cc2Cl)[C@H](C)[C@@H](O[C@@H]2O[C@H](C)C[C@H](N(C)C)[C@H]2O)[C@](C)(OC)C[C@@H](C)/C(=N\OC)[C@H](C)[C@H]2OC(=O)O[C@@]21C,> 32 µg/mL,1,>8,1,,,128 µg/mL,16 µg/mL,> 32 µg/mL,2 µg/mL,4 µg/mL,2 µg/mL,,> 256 µg/mL,16 µg/mL,128 µg/mL,,,> 256 µg/mL,> 256 µg/mL
CC[C@H]1OC(=O)[C@H](C)[C@@H](OC(=O)CCNCCNc2cc3c(=O)c(C(=O)O)cn(C4CC4)c3cc2Cl)[C@H](C)[C@@H](O[C@@H]2O[C@H](C)C[C@H](N(C)C)[C@H]2O)[C@](C)(OC)C[C@@H](C)/C(=N\OC)[C@H](C)[C@H]2OC(=O)O[C@@]21C,> 32 µg/mL,1,2,2,,1,> 256 µg/mL,,,,,,,,,,,,,
